Series [1] is described as follows: In vivo investigation of P-gp and BCRP contributions to limited brain penetration of pioglitazone (brain-to-plasma ratio after transporter inhibitor pre-treatment). As to conditions: C57BL/6, mouse, in vivo, 30 mg/kg. How it is done: (§1) All animals were pre-treated with the respective drug transporter inhibitor(s) 30 minutes before administration of pioglitazone. Thirty minutes after treatment with pioglitazone, all animals were sacrificed and plasma and brain samples were collected. […] The brain-to-plasma ratios of pioglitazone concentrations were used to assess penetration of brain tissue.
(§2) Figure 1 All animals were pre-treated with either the vehicle or the respective drug-transporter inhibitor (n = 6 for each treatment group) 30 minutes prior to drug treatment. Plasma and brain samples were then collected from the animals 30 minutes after pioglitazone treatment. (A) Pioglitazone levels in plasma samples harvested from mice given i.p. pioglitazone with or without pre-treatment of LY335979 (P-gp blocker) and/or Ko143 (BCRP blocker). (B) Brain-to-plasma ratios of pioglitazone concentrations calculated for each mouse given i.p. pioglitazone with or without pre-treatment of LY335979 and/or Ko143.
(§3) A total of 24 mice were divided into four treatment groups (n = 6), where three groups received pre-treatment of efflux pump inhibitors (P-gp inhibitor LY335979, BCRP inhibitor Ko143, and a combination of LY335979 + Ko143) and one group received vehicle pre-treatment as a control. All test compounds (pioglitazone, LY335979, and Ko143) were dissolved in Milli-Q water using 1% DMSO as co-solvent. Pre-treatments of LY335979 (25 mg/kg), Ko143 (5 mg/kg) or a combination of both were given in a single intra-peritoneal (i.p.) injection 30 minutes before pioglitazone administration (i.p. injection, 30 mg/kg). […] Following another 30 minutes after pioglitazone administration, all mice were sacrificed by CO2 euthanasia and their blood samples were collected via cardiac puncture into Eppendorf tubes supplemented with heparin. Transcardial perfusion with saline was then performed on the sacrificed mice to remove traces of blood from organs before the whole brain tissues were harvested. All biological samples were kept on ice immediately after collection. […]

Series [2] relates to P-gp and BCRP drug efflux transporters at the blood-brain-barrier. The description is as above. Here is the method: as §1, §2, §3
Series [3] is described as follows: in vivo. The note with it: 30 mg/kg. Here is the method:
Our established UPLC-MS/MS method was used to quantify pioglitazone concentrations in plasma and brain samples harvested at different time points (1, 2, 4, 6, and 8 hours) after mice were given either racemic pioglitazone or (+)-pioglitazone.
Error bar represents one SD.
A total of forty mice were split into two treatment groups (n = 20), with one group receiving a single dose of the racemic pioglitazone (30 mg/kg, p.o.) and another group receiving the purified (+)-pioglitazone (30 mg/kg, p.o.). Both compounds were dissolved in Milli-Q water using 1% DMSO as co-solvent. Following oral administration of the test compounds, mice from both treatment groups were split again into five subgroups (n = 4), and mice belonging to different subgroups were sacrificed at different time points (1 hour, 2 hours, 4 hours, 6 hours, and 8 hours after oral dosing). All mice were sacrificed by CO2 euthanasia and blood samples were taken via cardiac puncture. Blood samples were then centrifuged at 4000 g (10 minutes) to collect the plasma. Whole brains were collected following transcardial perfusion with saline to remove blood from organs. […] Pioglitazone concentrations versus time graphs were constructed for both brain and plasma samples, and area under curve (AUC) for both (+)-pioglitazone and racemic pioglitazone were then used to assess each tissue's exposure to pioglitazone. AUC was calculated from time 0 hour to infinity (AUC0–∞) for both types of samples using the trapezoidal rule. Comparisons of pioglitazone concentrations in different sample matrices between the two treatment groups were performed using two-tailed independent t-test with Welch's correction, and statistical significance was defined as P < 0.05.

The subject of series [4] is CHO-APP695 cells. Briefly: Extracellular amyloid-β42 lowering in CHO-APP695 (sandwich ELISA). As to conditions: 48 hours; for effect on increase in extracellular amyloid-β42: 10 μM, versus non-treated CHO-APP695. The format is cell-based, Chinese hamster. Here is the method:
Figure 4 Extracellular amyloid-β42 levels in culture media samples harvested from both CHO-WT and treated or non-treated CHO-APP695 following 48 hours of post-seeding incubation.
CHO (Chinese hamster ovary) cells stably transfected with mouse APP 695 (CHO-APP695) were used as the AD in vitro model in this experiment. CHO-APP695 and the wild type (CHO-WT) were kindly provided by G. S. Dawe (National University of Singapore, Singapore). Both cell lines were incubated at 37°C in the presence of 5% CO2 for all cell culture work. Cell lines were maintained in DMEM culture medium (Sigma D1152) containing 10% FBS and supplemented with 100 units/mL of penicillin and 100 μg/mL of streptomycin.
When cells were used for experiments, both CHO-APP695 and CHO-WT were standardised at third passage and harvested for seeding when the cells were at log-phase growth. Cells were seeded (n = 7) on 24-well cell culture plates at 1 × 10^5 cells/well in 0.5 mL of culture medium. To evaluate amyloid-lowering effects of (+)-pioglitazone and racemic pioglitazone on extracellular amyloid-β42 levels, additional groups (n = 7) of CHO-APP695 treated with (+)-pioglitazone, (+)-pioglitazone + T007, racemic pioglitazone, and racemic pioglitazone + T007 were also seeded. […] Upon completion of seeding after 24 hours, the culture medium in each well was replaced with 0.5 mL of fresh medium. Seeded cells were incubated further for 48 hours before the culture medium was individually harvested. Harvested samples were briefly centrifuged (800 g) for 5 minutes at 4°C before supernatants were transferred into clean 1.8-mL cryogenic vials and snap frozen in liquid nitrogen. All harvested samples were stored at −80°C until analysis.
Amyloid-β42 levels in culture media were harvested 48 hours after seeding incubation and were quantitatively measured using colorimetric sandwich ELISA kits according to the protocols provided by the manufacturer (#SIG-38954 and #SIG-38956 from Covance, Princeton, NJ). […] All absorbance readings were measured using a Tecan Infinite M200 microplate reader (Tecan, Switzerland).
A general note: In an ELISA, binding on a coated surface is turned into a signal by an enzyme label.

On the set-up of series [5]: method as in PMID 21819568. As to conditions: monkeys; cited from earlier work.
For series [6] the following is noted: rats, dogs, and monkeys; cited from earlier work.
Series [7] deals with P-gp. Further details: method as in PMID 10820137. As to conditions: 25 mg/kg; mice; cited from earlier work.
The test system of series [8] is BCRP. Also noted: method as in PMID 22828996. As to conditions: 5 mg/kg; mice; cited from earlier work.

`CCc1ccc(CCOc2ccc(CC3SC(=O)NC3=O)cc2)nc1` (stereo not drawn) [pioglitazone, Pioglitazone]: the Kp at 30 min in series [1] was determined as 0.107 ± 0.0125. In series [2] (mouse, in vivo), the transporter substrate status result is recorded as “substrate of P-gp”. The “pioglitazone brain-to-plasma concentration ratio” value in series [2] (vehicle pre-treatment (control), pioglitazone 30 mg/kg i.p., 30 minutes after pioglitazone, n = 6) worked out at 10.65%. In addition, in series [3] (C57BL/6, mouse, po), the total exposure AUC(0-inf) was 262 µg·h/mL, the Cmax came to 53500 ± 8070 ng/mL, the Tmax is 1 h and the “brain AUC0–∞ of pioglitazone” value amounted to 22.7 µg·h/mL. The “brain Cmax of pioglitazone” value in series [3] (C57BL/6, mouse, po) stood at 4880 ± 340 ng/mL. Moreover, the “effect on increase in extracellular amyloid-β42” value in series [4] was “reduced significantly”. Further, the “cerebral spinal fluid (CSF) concentration as % of plasma concentrations” value in series [5] is reported as “less than 3%”. Further, the “share of serum pioglitazone found in the CSF” value in series [6] was “approximately 18%”.

With `CCc1ccc(CCOc2ccc(C[C@H]3SC(=O)NC3=O)cc2)nc1` (single isomer, unassigned) [(+)-pioglitazone], in series [3] (mouse), the “brain AUC0–∞ / brain exposure higher than after racemic pioglitazone” value came out at 76%. Besides, in series [3] (mouse, po), the “brain AUC0–∞ of pioglitazone” value is 40 µg·h/mL, the “brain Cmax of pioglitazone” value turned out to be 5070 ± 380 ng/mL, the “peak time (Tmax) of plasma pioglitazone” value was determined as 1 h and the “plasma AUC0–∞ of pioglitazone” value stood at 274 µg·h/mL. Also, in series [3] (mouse, po), the “plasma concentration maximum (Cmax) of pioglitazone” value stood at 39920 ± 6200 ng/mL. Also, the “treatment effect on extracellular amyloid-β42 on co-administration of PPARγ selective blocker (T007)” value in series [4] (10 μM each) was “nullified”. In series [4], the “effect on increase in extracellular amyloid-β42” value is “reduced significantly”.

Turning to LY335979, the “inhibition of P-gp” value in series [7] is 50%.

For the compound `COc1ccc2c3c([nH]c2c1)[C@H](CC(C)C)N1C(=O)[C@H](CCC(=O)OC(C)(C)C)NC(=O)[C@@H]1C3` [Ko143], the “inhibition of BCRP” value in series [8] is recorded as 50%.

One may read the Kp as the ratio of the level in a tissue or fluid to that in plasma or blood. In general, AUC(0-inf) refers to total exposure, with the tail of the curve extrapolated. Broadly, the Cmax is the highest concentration seen after dosing. As a reminder, the Tmax is the time from dosing to the highest level.

(Values after publication PMC5390903, “Influence of drug transporters and stereoselectivity on the brain penetration of pioglitazone as a potential medicine against Alzheimer's disease” (Scientific Reports, 2015).)
